Assay results as given in US6664251B2, “Benzothiazine derivative” (Daiichi Suntory Pharma Co., Ltd., priority 1993, dated 2003).

Assays:
α1 receptor = assay: Anti-α1 action: tonic contraction of isolated thoracic aorta induced by norepinephrine; conditions: tonic contraction induced by 10^−5 M norepinephrine (NE) taken as 100%, Hartley male guinea pig thoracic aorta; for Anti α1 action (% of Control) 10^−7 M: test drug 10^−7 M; for Anti α1 action (% of Control) 10^−8 M: test drug 10^−8 M
Experimental: The thoracic aorta of each Hartley male guinea pig (body weight: 300-500 g) was excised. A preparation cut in a helical form was suspended under 1 g load in a Magnus cylinder filled with the Tyrode solution which had been aerated with a gas mixture of 95% O2+5% CO2 and maintained at 37° C. Using an isometric transducer (“TB-612J”, manufactured by NIHON KOHDEN) and a pressure preamplifier (“AP-620G”, manufactured by NIHON KOHDEN), variations in tension were measured. The isometric tensions were recorded on a thermal pen-writing recorder (“WT-647G”, manufactured by NIHON KOHDEN).
Taking the tonic contraction induced by 10^−5 M norepinephrine (NE) as 100%, the percent contractions upon addition of each test drug at 10^−8 and 10^−7 M were determined as anti-α1 action.

serotonin-2 receptor = assay: Anti-serotonin action (anti-5-HT action): contraction of isolated superior mesenteric artery induced by serotonin; conditions: contraction induced by 10^−5 M serotonin (5-HT) taken as 100%, Hartley male guinea pig superior mesenteric artery; for Anti 5-HT action (% of Control) 10^−6 M: test drug 10^−6 M; for Anti 5-HT action (% of Control) 10^−7 M: test drug 10^−7 M
Experimental: (1) Anti-Serotonin Action (Anti-5-HT Action)
A preparation cut in a helical form was suspended under 0.3 g load in a Magnus cylinder filled with the Tyrode solution which had been aerated with a gas mixture of 95% O2+5% CO2 and maintained at 37° C. Using an isometric transducer (“UL-10”, manufactured by SHINKOH K.K.) and a pressure preamplifier (“DSA-605A”, manufactured by SHINKOH K.K.), variations in tension were measured. The isometric tensions were recorded on a pen-writing recorder (“VP-6537A”, manufactured by NATIONAL K.K.). Taking the contraction induced by 10^−5 M serotonin (5-HT) as 100%, the percent contractions in the presence of each test drug at 10^−7 and 10^−6 M were determined as anti-5-HT action.

Row | SMILES | Anti α1 action (% of Control) 10^−7 M (α1 receptor) | Anti α1 action (% of Control) 10^−8 M (α1 receptor) | Anti 5-HT action (% of Control) 10^−6 M (serotonin-2 receptor) | Anti 5-HT action (% of Control) 10^−7 M (serotonin-2 receptor)
1 | O=S1(=O)c2ccccc2C2(CN1CCCN1CCN(c3ccc(O)cc3)CC1)OCCO2 [Compound No. 37, 2-[3-[4-(4-hydroxyphenyl)piperazin-1-yl]propyl]-3,4-dihydro-2H-1,2-benzothiazin-4-one 1,1-dioxide ethylene acetal] | 96.2 % of Control | 100 % of Control | 8.3 % of Control | 15.7 % of Control
2 | O=C(c1ccc(F)cc1)C1CCN(CCCN2CC3(OCCO3)c3ccccc3S2(=O)=O)CC1 [Compound No. 40, 2-[3-[4-(4-fluorobenzoyl)piperidino]-propyl]-3,4-dihydro-2H-1,2-benzothiazine-4-spiro-2′-(1′,3′-dioxolan) 1,1-dioxide] | 73.2 % of Control | 98.3 % of Control | 13.4 % of Control | 37.4 % of Control
3 | O=S1(=O)c2ccccc2C2(CN1CCCN1CCN(c3ccccn3)CC1)OCCO2 [Compound No. 46, 2-[3-[4-(2-pyridyl)piperazin-1-yl]-propyl]-3,4-dihydro-2H-1,2-benzothiazin-4-one 1,1-dioxide ethylene acetal] | 97.4 % of Control | 100 % of Control | 5.5 % of Control | 39.8 % of Control
4 | COC1(OC)CN(CCCN2CCN(c3ccc(F)cc3)CC2)S(=O)(=O)c2ccccc21 [Compound No. 55, 2-[3-[4-(4-fluorophenyl)piperazin-1-yl]propyl]-4,4-dimethoxy-3,4-dihydro-2H-1,2-benzothiazine 1,1-dioxide] | 89.2 % of Control | 100 % of Control | 7.4 % of Control | 23.4 % of Control
5 | COC1=CN(CCCN2CCN(c3ccc(F)cc3)CC2)S(=O)(=O)c2ccccc21 [Compound No. 56, 2-[3-[4-(4-fluorophenyl)piperazin-1-yl]propyl]-4-methoxy-2H-1,2-benzothiazine 1,1-dioxide] | 69.5 % of Control | 95.4 % of Control | 16.9 % of Control | 60.8 % of Control
6 | COC1CN(CCCN2CCN(c3ccc(F)cc3)CC2)S(=O)(=O)c2ccccc21 (stereo not shown) [Compound No. 57, 2-[3-[4-(4-fluorophenyl)piperazin-1-yl]propyl]-4-methoxy-3,4-dihydro-2H-1,2-benzothiazine 1,1-dioxide] | 81.6 % of Control | 97.3 % of Control | 10.0 % of Control | 22.0 % of Control
7 | O=S1(=O)c2ccccc2C2(CN1CCCN1CCN(c3ccc(F)cc3)CC1)OCCO2 [Compound No. 62, 2-[3-[4-(4-fluorophenyl)piperazin-1-yl]propyl]-3,4-dihydro-2H-1,2-benzothiazin-4-one 1,1-dioxide ethylene acetal] | 53.1 % of Control | 98.1 % of Control | 3.3 % of Control | 14.1 % of Control
8 | O=S1(=O)c2ccccc2C2(CN1CCCN1CCN(c3ccc(F)cc3)CC1)OCCCO2 [Compound No. 64, 2-[3-[4-(4-fluorophenyl)piperazin-1-yl]propyl]-3,4-dihydro-2H-1,2-benzothiazine-4-spiro-2′-(1′,3′-dioxane) 1,1-dioxide] | 84.9 % of Control | 97.3 % of Control | 13.8 % of Control | 24.8 % of Control
9 | O=S1(=O)c2ccccc2C2(CN1CCCN1CCN(c3ccc(F)cc3)CC1)SCCS2 [Compound No. 66, 2-[3-[4-(4-fluorophenyl)piperazin-1-yl]propyl]-3,4-dihydro-2H-1,2-benzothiazine-4-spiro-2′-(1′,3′-dithiolan) 1,1-dioxide] | 86.5 % of Control | 100 % of Control | 2.8 % of Control | 66.6 % of Control
10 | O=C(c1ccc(F)cc1)C1CCN(CCCN2CC(O)c3ccccc3S2(=O)=O)CC1 (stereo not shown) [Compound No. 76, 2-[3-[4-(4-fluorobenzoyl)piperidino]-propyl]-4-hydroxy-3,4-dihydro-2H-1,2-benzothiazine 1,1-dioxide] | 88.2 % of Control | 100 % of Control | 21.7 % of Control | 53.9 % of Control
11 | O=S1(=O)c2ccccc2C(O)CN1CCCN1CCN(c2ccc(F)cc2)CC1 (stereo not shown) [Compound No. 77, 2-[3-[4-(4-fluorophenyl)piperazin-1-yl]propyl]-4-hydroxy-3,4-dihydro-2H-1,2-benzothiazine 1,1-dioxide] | 79.6 % of Control | 100 % of Control | 18.2 % of Control | 45.7 % of Control
12 | COc1cccc2c1C1(CN(CCN3CCN(c4ccc(F)cc4)CC3)S2(=O)=O)OCCO1 [Compound No. 109, 2-[2-[4-(4-fluorophenyl)piperazin-1-yl]ethyl]-5-methoxy-3,4-dihydro-2H-1,2-benzothiazin-4-one 1,1-dioxide ethylene acetal] | 96.1 % of Control | 99.3 % of Control |  | 10.5 % of Control
13 | COc1cccc2c1C1(CN(CCCN3CCN(c4ccc(F)cc4)CC3)S2(=O)=O)OCCO1 [Compound No. 110, 2-[3-[4-(4-fluorophenyl)piperazin-1-yl]propyl]-5-methoxy-3,4-dihydro-2H-1,2-benzothiazin-4-one 1,1-dioxide ethylene acetal] | 81.1 % of Control | 100 % of Control |  | 5.6 % of Control
14 | COc1cccc2c1C1(CN(CCCN3CCN(c4ccc(O)cc4)CC3)S2(=O)=O)OCCO1 [Compound No. 111, 2-[3-[4-(4-hydroxyphenyl)piperazin-1-yl]propyl]-5-methoxy-3,4-dihydro-2H-1,2-benzothiazin-4-one 1,1-dioxide ethylene acetal] | 98.6 % of Control | 100.9 % of Control |  | 10.9 % of Control
15 | O=S1(=O)c2cccc(Cl)c2C2(CN1CCCN1CCN(c3ccc(F)cc3)CC1)OCCO2 [Compound No. 113, 5-chloro-2-[3-[4-(4-fluorophenyl)piperazin-1-yl]propyl]-3,4-dihydro-2H-1,2-benzothiazin-4-one 1,1-dioxide ethylene acetal] | 89.3 % of Control | 98.3 % of Control |  | 49.5 % of Control
16 | O=S1(=O)c2cccc(Cl)c2C2(CN1CCCN1CCN(c3ccc(O)cc3)CC1)OCCO2 [Compound No. 114, 5-chloro-2-[3-[4-(4-hydroxyphenyl)piperazin-1-yl]propyl]-3,4-dihydro-2H-1,2-benzothiazin-4-one 1,1-dioxide ethylene acetal] | 98.9 % of Control | 101.1 % of Control |  | 23.5 % of Control
17 | COc1ccc2c(c1)C1(CN(CCCN3CCN(c4ccc(F)cc4)CC3)S2(=O)=O)OCCO1 [Compound No. 115, 2-[3-[4-(4-fluorophenyl)piperazin-1-yl]propyl]-6-methoxy-3,4-dihydro-2H-1,2-benzothiazin-4-one 1,1-dioxide ethylene acetal] | 62.3 % of Control | 100.4 % of Control | 14.1 % of Control | 63.0 % of Control
18 | COc1ccc2c(c1)C1(CN(CCCN3CCC(C(=O)c4ccc(F)cc4)CC3)S2(=O)=O)OCCO1 [Compound No. 116, 2-[3-[4-(4-fluorobenzoyl)piperidino]-propyl]-6-methoxy-3,4-dihydro-2H-1,2-benzothiazin-4-one 1,1-dioxide ethylene acetal] | 88.3 % of Control | 100.7 % of Control | 13.9 % of Control | 40.2 % of Control
